According to US6737383B1, “Herbicidal oxadiazolidines” (priority 1999, dated 2004):

Legend:
[1] = test system: smallflower flatsedge; test: Test B flood test smallflower flatsedge; type: in vivo, Cyperus difformis
Outline: (§1)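 Each value is a visual injury score relative to controls, with 10 meaning complete control and 0 no effect. Evaluation took place twelve to sixteen days after the 2-leaf-stage plants were treated and kept in the greenhouse.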

[2] = test system: crabgrass; test: Test B pre/postemergence crabgrass; type: in vivo, Digitaria sanguinalis
Outline: (§2)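 Response is a visual 0-to-10 score relative to untreated plants, where 0 means no effect and 10 means complete control, taken twelve to sixteen days after application. Treatments went onto soil at planting and onto foliage of 1- to 4-leaf plants, using a surfactant-containing non-phytotoxic solvent.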

[3] = test system: wild oat; test: Test B pre/postemergence wild oat; type: in vivo, Avena fatua
Outline: as §2

[4] = test system: blackgrass; test: Test B pre/postemergence blackgrass; type: in vivo, Alopecurus myosuroides
Outline: as §2

[5] = test system: duck salad; test: Test B flood test duck salad; type: in vivo, Heteranthera limosa
Outline: as §1

[6] = test system: velvetleaf; test: Test B pre/postemergence velvetleaf; type: in vivo, Abutilon theophrasti
Outline: as §2

[7] = test system: wheat; test: Test B pre/postemergence wheat; type: in vivo, Triticum aestivum
Outline: as §2

[8] = test system: sugar beet; test: Test B pre/postemergence sugar beet; type: in vivo, Beta vulgaris
Outline: as §2

[9] = test system: bedstraw; test: Test B pre/postemergence bedstraw; type: in vivo, Galium aparine; conditions: for Bedstraw plant response rating: Postemergence
Outline: as §2

[10] = test system: rice; test: Test B flood test rice; type: in vivo, Oryza sativa
Outline: as §1

[11] = test system: pigweed; test: Test B pre/postemergence pigweed; type: in vivo, Amaranthus retroflexus
Outline: as §2

[12] = test system: rape; test: Test B pre/postemergence rape; type: in vivo, Brassica napus
Outline: as §2

[13] = test system: soybean; test: Test B pre/postemergence soybean; type: in vivo, Glycine max
Outline: as §2

[14] = test system: surinam grass; test: Test B pre/postemergence surinam grass; type: in vivo, Brachiaria decumbens
Outline: as §2

[15] = test system: corn; test: Test B pre/postemergence corn; type: in vivo, Zea mays
Outline: as §2

[16] = test system: purple nutsedge; test: Test B pre/postemergence purple nutsedge; type: in vivo, Cyperus rotundus
Outline: as §2

[17] = Postemergence block (flood test species), Rate 250 g/ha, scale 0 to 10
[18] = Postemergence section (flood test species), Rate 500 g/ha, scale of 0 to 10 where 0 is no effect and 10 is complete control
[19] = Rate 125 g/ha, Postemergence section (flood test species), scale 0 to 10, 0 is no effect, 10 is complete control
[20] = Postemergence, Rate 250 g/ha, scale 0 to 10
[21] = Postemergence, Rate 500 g/ha, scale of 0 to 10 where 0 is no effect and 10 is complete control
[22] = Preemergence, Rate 62 g/ha, scale 0 to 10 (0 no effect, 10 complete control)
[23] = Preemergence, Rate 500 g/ha, scale 0 to 10, 0 is no effect, 10 is complete control
[24] = Rate 62 g/ha, Postemergence, scale of 0 to 10 where 0 is no effect and 10 is complete control
[25] = Rate 125 g/ha, Postemergence, scale 0 to 10, 0 is no effect, 10 is complete control
[26] = Preemergence, Rate 125 g/ha, scale of 0 to 10 where 0 is no effect and 10 is complete control
[27] = Preemergence, Rate 250 g/ha, scale 0 to 10, 0 is no effect, 10 is complete control
[28] = Rate 62 g/ha, Postemergence (flood test species), scale of 0 to 10 where 0 is no effect and 10 is complete control
[29] = Postemergence, Rate 250 g/ha, scale 0 to 10, 0 no effect, 10 complete control

CC(C)N(C(=O)n1oc(=O)n(CC#N)c1=O)c1ccc(F)cc1F [Compound 431]
S. Flatsedge plant response rating [1, 17]: 0 | S. Flatsedge plant response rating [1, 18]: 0 | S. Flatsedge plant response rating [1, 19]: 0 | Crabgrass plant response rating [2, 20]: 0 | Crabgrass plant response rating [2, 21]: 2 | Plant response rating, Crabgrass [2, 22]: 0 | Crabgrass plant response rating [2, 23]: 3 | Crabgrass plant response rating [2, 24]: 0 | Crabgrass plant response rating [2, 25]: 0 | Wild oats plant response rating [3, 20]: 0 | Wild oats plant response rating [3, 21]: 0 | Plant response rating, Wild oats [3, 22]: 0 | Plant response rating, Wild oats [3, 26]: 0 | Wild oats plant response rating [3, 27]: 2 | Wild oats plant response rating [3, 23]: 2 | Wild oats plant response rating [3, 25]: 0 | Blackgrass plant response rating [4, 20]: 2 | Blackgrass plant response rating [4, 21]: 5 | Plant response rating, Blackgrass [4, 22]: 0 | Plant response rating, Blackgrass [4, 26]: 0 | Blackgrass plant response rating [4, 27]: 0 | Blackgrass plant response rating [4, 23]: 3 | Blackgrass plant response rating [4, 24]: 0 | Blackgrass plant response rating [4, 25]: 0 | Ducksalad plant response rating [5, 17]: 0 | Ducksalad plant response rating [5, 18]: 0 | Ducksalad plant response rating [5, 28]: 0 | Ducksalad plant response rating [5, 19]: 0 | Velvetleaf plant response rating [6, 20]: 0 | Velvetleaf plant response rating [6, 21]: 2 | Plant response rating, Velvetleaf [6, 22]: 0 | Plant response rating, Velvetleaf [6, 26]: 0 | Velvetleaf plant response rating [6, 27]: 0 | Velvetleaf plant response rating [6, 23]: 0 | Velvetleaf plant response rating [6, 25]: 0 | Wheat plant response rating [7, 20]: 0 | Wheat plant response rating [7, 21]: 0 | Plant response rating, Wheat [7, 22]: 0 | Plant response rating, Wheat [7, 26]: 0 | Wheat plant response rating [7, 27]: 0 | Wheat plant response rating [7, 23]: 0 | Wheat plant response rating [7, 25]: 0 | Sugarbeets plant response rating [8, 20]: 0 | Sugarbeets plant response rating [8, 21]: 0 | Plant response rating, Sugarbeets [8, 22]: 0 | Plant response rating, Sugarbeets [8, 26]: 0 | Sugarbeets plant response rating [8, 27]: 0 | Sugarbeets plant response rating [8, 23]: 0 | Sugarbeets plant response rating [8, 25]: 0 | Plant response rating, Bedstraw [9, 22]: 0 | Rice plant response rating [10, 17]: 0 | Rice plant response rating [10, 18]: 0 | Rice plant response rating [10, 19]: 0 | Redroot pigweed plant response rating [11, 20]: 0 | Redroot pigweed plant response rating [11, 21]: 0 | Plant response rating, Redroot pigweed [11, 22]: 0 | Plant response rating, Redroot pigweed [11, 26]: 0 | Redroot pigweed plant response rating [11, 27]: 0 | Redroot pigweed plant response rating [11, 23]: 0 | Redroot pigweed plant response rating [11, 25]: 0 | Rape plant response rating [12, 20]: 0 | Rape plant response rating [12, 21]: 0 | Plant response rating, Rape [12, 22]: 0 | Plant response rating, Rape [12, 26]: 0 | Rape plant response rating [12, 27]: 0 | Rape plant response rating [12, 23]: 3 | Rape plant response rating [12, 25]: 0 | Soybean plant response rating [13, 20]: 1 | Soybean plant response rating [13, 21]: 2 | Plant response rating, Soybean [13, 22]: 0 | Plant response rating, Soybean [13, 26]: 0 | Soybean plant response rating [13, 27]: 0 | Soybean plant response rating [13, 23]: 0 | Soybean plant response rating [13, 25]: 1 | B. signalgrass plant response rating [14, 29]: 0 | B. signalgrass plant response rating [14, 21]: 2 | Plant response rating, B. signalgrass [14, 22]: 0 | Plant response rating, B. signalgrass [14, 26]: 0 | B. signalgrass plant response rating [14, 27]: 0 | B. signalgrass plant response rating [14, 23]: 0 | B. signalgrass plant response rating [14, 24]: 0 | B. signalgrass plant response rating [14, 25]: 0 | Corn plant response rating [15, 20]: 0 | Corn plant response rating [15, 21]: 0 | Plant response rating, Corn [15, 22]: 0 | Plant response rating, Corn [15, 26]: 0 | Corn plant response rating [15, 27]: 0 | Corn plant response rating [15, 23]: 0 | Corn plant response rating [15, 24]: 0 | Corn plant response rating [15, 25]: 0 | Nutsedge plant response rating [16, 20]: 0 | Nutsedge plant response rating [16, 21]: 0 | Plant response rating, Nutsedge [16, 22]: 0 | Plant response rating, Nutsedge [16, 26]: 0 | Nutsedge plant response rating [16, 27]: 0 | Nutsedge plant response rating [16, 23]: 0 | Nutsedge plant response rating [16, 25]: 0

CC(C)N(C(=O)n1oc(=O)n(CCC#N)c1=O)c1ccc(F)cc1F [Compound 433]
S. Flatsedge plant response rating [1, 17]: 0 | S. Flatsedge plant response rating [1, 18]: 0 | S. Flatsedge plant response rating [1, 19]: 0 | Crabgrass plant response rating [2, 20]: 4 | Crabgrass plant response rating [2, 21]: 9 | Plant response rating, Crabgrass [2, 22]: 9 | Plant response rating, Crabgrass [2, 26]: 10 | Crabgrass plant response rating [2, 27]: 10 | Crabgrass plant response rating [2, 23]: 10 | Crabgrass plant response rating [2, 24]: 2 | Crabgrass plant response rating [2, 25]: 2 | Wild oats plant response rating [3, 20]: 0 | Wild oats plant response rating [3, 21]: 2 | Plant response rating, Wild oats [3, 22]: 2 | Plant response rating, Wild oats [3, 26]: 6 | Wild oats plant response rating [3, 27]: 6 | Wild oats plant response rating [3, 23]: 8 | Wild oats plant response rating [3, 25]: 0 | Blackgrass plant response rating [4, 20]: 7 | Blackgrass plant response rating [4, 21]: 10 | Plant response rating, Blackgrass [4, 22]: 2 | Plant response rating, Blackgrass [4, 26]: 2 | Blackgrass plant response rating [4, 27]: 3 | Blackgrass plant response rating [4, 23]: 9 | Blackgrass plant response rating [4, 24]: 2 | Blackgrass plant response rating [4, 25]: 5 | Ducksalad plant response rating [5, 17]: 0 | Ducksalad plant response rating [5, 18]: 0 | Ducksalad plant response rating [5, 28]: 0 | Ducksalad plant response rating [5, 19]: 0 | Velvetleaf plant response rating [6, 20]: 2 | Velvetleaf plant response rating [6, 21]: 4 | Plant response rating, Velvetleaf [6, 22]: 2 | Plant response rating, Velvetleaf [6, 26]: 2 | Velvetleaf plant response rating [6, 27]: 4 | Velvetleaf plant response rating [6, 23]: 6 | Velvetleaf plant response rating [6, 25]: 0 | Wheat plant response rating [7, 20]: 0 | Wheat plant response rating [7, 21]: 3 | Plant response rating, Wheat [7, 22]: 0 | Plant response rating, Wheat [7, 26]: 0 | Wheat plant response rating [7, 27]: 0 | Wheat plant response rating [7, 23]: 2 | Wheat plant response rating [7, 25]: 0 | Sugarbeets plant response rating [8, 20]: 0 | Sugarbeets plant response rating [8, 21]: 0 | Plant response rating, Sugarbeets [8, 22]: 0 | Plant response rating, Sugarbeets [8, 26]: 2 | Sugarbeets plant response rating [8, 27]: 4 | Sugarbeets plant response rating [8, 23]: 8 | Sugarbeets plant response rating [8, 25]: 0 | Bedstraw plant response rating ([9]; Rate 250 g/ha, scale 0 to 10): 5 | Bedstraw plant response rating ([9]; Rate 500 g/ha, scale of 0 to 10 where 0 is no effect and 10 is complete control): 7 | Bedstraw plant response rating ([9]; Rate 125 g/ha, scale 0 to 10, 0 is no effect, 10 is complete control): 2 | Rice plant response rating [10, 17]: 0 | Rice plant response rating [10, 18]: 0 | Rice plant response rating [10, 19]: 0 | Redroot pigweed plant response rating [11, 20]: 2 | Redroot pigweed plant response rating [11, 21]: 3 | Plant response rating, Redroot pigweed [11, 22]: 0 | Plant response rating, Redroot pigweed [11, 26]: 4 | Redroot pigweed plant response rating [11, 27]: 7 | Redroot pigweed plant response rating [11, 23]: 10 | Redroot pigweed plant response rating [11, 25]: 0 | Rape plant response rating [12, 20]: 0 | Rape plant response rating [12, 21]: 0 | Plant response rating, Rape [12, 22]: 0 | Plant response rating, Rape [12, 26]: 0 | Rape plant response rating [12, 27]: 3 | Rape plant response rating [12, 23]: 7 | Rape plant response rating [12, 25]: 0 | Soybean plant response rating [13, 20]: 2 | Soybean plant response rating [13, 21]: 2 | Plant response rating, Soybean [13, 22]: 0 | Plant response rating, Soybean [13, 26]: 0 | Soybean plant response rating [13, 27]: 0 | Soybean plant response rating [13, 23]: 0 | Soybean plant response rating [13, 25]: 2 | B. signalgrass plant response rating [14, 29]: 3 | B. signalgrass plant response rating [14, 21]: 6 | Plant response rating, B. signalgrass [14, 22]: 2 | Plant response rating, B. signalgrass [14, 26]: 2 | B. signalgrass plant response rating [14, 27]: 2 | B. signalgrass plant response rating [14, 23]: 6 | B. signalgrass plant response rating [14, 24]: 0 | B. signalgrass plant response rating [14, 25]: 1 | Corn plant response rating [15, 20]: 0 | Corn plant response rating [15, 21]: 3 | Plant response rating, Corn [15, 22]: 0 | Plant response rating, Corn [15, 26]: 0 | Corn plant response rating [15, 27]: 0 | Corn plant response rating [15, 23]: 0 | Corn plant response rating [15, 24]: 0 | Corn plant response rating [15, 25]: 0 | Nutsedge plant response rating [16, 20]: 0 | Nutsedge plant response rating [16, 21]: 0 | Plant response rating, Nutsedge [16, 22]: 0 | Plant response rating, Nutsedge [16, 26]: 0 | Nutsedge plant response rating [16, 27]: 0 | Nutsedge plant response rating [16, 23]: 0 | Nutsedge plant response rating [16, 25]: 0
